Reference: patent publication US8247377B2, “Non-steroidal glucocorticoid inhibitors and their use in treating inflammation, allergy and auto-immune conditions” (Glaxo Group Limited, priority 2006, dated 2012)

Assays:
Type in all cases: cell-based
progesterone receptor = target: T1, progesterone receptor (Homo sapiens, UniProt P06401); test: Assay for progesterone receptor activity (CV-1 cells, PRb-BacMam/MMTV-BacMam); conditions: CV-1 cells transduced with PRb-BacMam and MMTV-BacMam; read-out: pEC50 progesterone receptor activity (converted)
T1 construct: expressed in transfected cells; host or cells: CV-1 cells transduced with PRb-BacMam and MMTV-BacMam
T1 sequence (P06401 1-933): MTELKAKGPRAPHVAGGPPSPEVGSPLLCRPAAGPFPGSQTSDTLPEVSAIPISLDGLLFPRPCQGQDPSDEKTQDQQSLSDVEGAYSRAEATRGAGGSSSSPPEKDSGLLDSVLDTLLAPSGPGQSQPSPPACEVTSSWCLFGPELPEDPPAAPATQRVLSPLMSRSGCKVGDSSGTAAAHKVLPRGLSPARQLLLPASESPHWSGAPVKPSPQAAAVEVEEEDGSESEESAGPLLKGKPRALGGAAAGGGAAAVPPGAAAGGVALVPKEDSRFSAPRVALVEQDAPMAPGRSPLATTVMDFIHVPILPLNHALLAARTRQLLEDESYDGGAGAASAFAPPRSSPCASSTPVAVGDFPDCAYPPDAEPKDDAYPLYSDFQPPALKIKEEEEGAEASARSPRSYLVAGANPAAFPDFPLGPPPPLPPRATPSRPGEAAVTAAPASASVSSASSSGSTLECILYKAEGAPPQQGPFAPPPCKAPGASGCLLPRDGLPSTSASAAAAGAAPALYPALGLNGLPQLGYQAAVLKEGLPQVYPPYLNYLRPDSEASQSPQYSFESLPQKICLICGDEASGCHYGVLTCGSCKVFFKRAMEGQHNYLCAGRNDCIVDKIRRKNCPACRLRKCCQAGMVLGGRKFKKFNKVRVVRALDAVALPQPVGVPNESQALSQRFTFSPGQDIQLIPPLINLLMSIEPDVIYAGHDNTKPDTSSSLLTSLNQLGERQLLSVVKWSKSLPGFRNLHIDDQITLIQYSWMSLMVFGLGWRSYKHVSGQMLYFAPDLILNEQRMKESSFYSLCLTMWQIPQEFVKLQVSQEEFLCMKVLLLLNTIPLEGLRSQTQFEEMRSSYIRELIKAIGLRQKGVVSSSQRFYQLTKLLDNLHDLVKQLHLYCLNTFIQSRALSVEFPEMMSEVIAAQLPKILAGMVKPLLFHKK
How it was run: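 CV-1 cells co-transduced with PRb-BacMam and MMTV-BacMam (10% each), seeded onto compounds in DMEM with 10% serum. After 24 h, luminescence was read with Steadylite. pEC50 values were estimated from dose-response curves.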

MMTV promoter = test: MMTV agonist assay in A549 MMTV cells; conditions: Homo sapiens, A549, 6 h, >85% = full agonist, >20% and <85% = partial or efficacy selective agonist, read-out: average maximum asymptote in the MMTV agonist assay
How it was run: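 A549 cells stably carrying an MMTV promoter-driven renilla luciferase reporter were exposed to compound for 6 h at 37 °C in DMEM with 10% FCS and 25 mM HEPES. Luminescence read after renilla substrate addition; pEC50 and maximum asymptote estimated from dose-response curves.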

NFκB = NFκB agonist assay in A549 SPAP cells; conditions: Homo sapiens; for Emax: A549, A549 SPAP cells, >85% = full agonist, ≧20% = partial or full agonist, read-out: average maximum asymptote in the NFkB assay; for IC50: A549 SPAP cells, TNFα 3.2 ng/ml, read-out: pIC50 for the NFkB assay (converted);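 as to average maximum asymptote in the NFkB assay: maximum inhibition of the TNFα-induced NFκB-driven signal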
How it was run: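 A549 cells stably carrying an ELAM/NFκB-driven SPAP reporter were pre-incubated 1 h at 37° C with compound, then stimulated with TNFα (3.2 ng/ml final) for 15 h. SPAP activity read colorimetrically with pNPP at 405 nm after ~1 h; pIC50 estimated from dose-response curves.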

SMILES	EC50 (progesterone receptor)	Emax (MMTV promoter)	Emax (NFκB)	IC50 (NFκB)
CN(CC(O)(CNC(=O)c1cnn(-c2ccc(F)cc2)c1N)C(F)(F)F)C(=O)c1c(Cl)cccc1Br (racemic) [Example 16 (racemic), 5-amino-N-(2-{[[(2-bromo-6-chlorophenyl)carbonyl](methyl)amino]methyl}-3,3,3-trifluoro-2-hydroxypropyl)-1-(4-fluorophenyl)-1H-pyrazole-4-carboxamide]	> 1000 nM	> 85%	> 85%	< 1000 nM
Nc1c(C(=O)NCC(O)(CN(CCF)C(=O)c2c(F)cccc2F)C(F)(F)F)cnn1-c1ccc(F)cc1 (racemic) [Example 17 (racemic), 5-amino-N-(2-{[[(2,6-difluorophenyl)carbonyl](2-fluoroethyl)amino]methyl}-3,3,3-trifluoro-2-hydroxypropyl)-1-(4-fluorophenyl)-1H-pyrazole-4-carboxamide]	> 1000 nM	> 85%	> 85%	< 1000 nM
Nc1c(C(=O)NCC(O)(CN(CCF)C(=O)c2c(F)cccc2C(F)(F)F)C(F)(F)F)cnn1-c1ccc(F)cc1 (racemic) [Example 18 (racemic), 5-amino-1-(4-fluorophenyl)-N-{3,3,3-trifluoro-2-[((2-fluoroethyl){[2-fluoro-6-(trifluoromethyl)phenyl]carbonyl}amino)methyl]-2-hydroxypropyl}-1H-pyrazole-4-carboxamide]	> 1000 nM	> 85%	> 85%	< 1000 nM
Nc1c(C(=O)NCC(O)(CNC(=O)c2c(F)cccc2C(F)(F)F)C(F)(F)F)cnn1-c1ccc(F)cc1 (racemic) [Example 19 (racemic), 5-amino-1-(4-fluorophenyl)-N-{3,3,3-trifluoro-2-[({[2-fluoro-6-(trifluoromethyl)phenyl]carbonyl}amino)methyl]-2-hydroxypropyl}-1H-pyrazole-4-carboxamide]	> 1000 nM	20 to 85%	≥ 20%	< 1000 nM
CN(CC(O)(CNC(=O)c1cnn(-c2ccc(F)cc2)c1N)C(F)(F)F)C(=O)c1c(F)cccc1C(F)(F)F (racemic) [Example 21 (racemic), 5-amino-1-(4-fluorophenyl)-N-(3,3,3-trifluoro-2-{[{[2-fluoro-6-(trifluoromethyl)phenyl]carbonyl}(methyl)amino]methyl}-2-hydroxypropyl)-1H-pyrazole-4-carboxamide]	> 1000 nM	> 85%	> 85%	< 1000 nM
CN(CC(O)(CNC(=O)c1cnn(-c2ccc(F)cc2)c1N)C(F)(F)F)C(=O)c1c(C(F)(F)F)cccc1C(F)(F)F (racemic) [Example 22 (racemic), 5-amino-N-(2-{[{[2,6-bis(trifluoromethyl)phenyl]carbonyl}(methyl)amino]methyl}-3,3,3-trifluoro-2-hydroxypropyl)-1-(4-fluorophenyl)-1H-pyrazole-4-carboxamide]	> 1000 nM	> 85%	> 85%	< 1000 nM
CCN(CC(O)(CNC(=O)c1cnn(-c2ccc(F)cc2)c1N)C(F)(F)F)C(=O)c1c(F)cccc1C(F)(F)F (racemic) [Example 23 (racemic), 5-amino-N-{2-[(ethyl{[2-fluoro-6-(trifluoromethyl)phenyl]carbonyl}amino)methyl]-3,3,3-trifluoro-2-hydroxypropyl}-1-(4-fluorophenyl)-1H-pyrazole-4-carboxamide]	> 1000 nM	> 85%	> 85%	< 1000 nM
CCN(CC(O)(CNC(=O)c1cnn(-c2ccc(F)cc2)c1N)C(F)(F)F)C(=O)c1c(Cl)cccc1Br (racemic) [Example 24 (racemic), 5-amino-N-(2-{[[(2-bromo-6-chlorophenyl)carbonyl](ethyl)amino]methyl}-3,3,3-trifluoro-2-hydroxypropyl)-1-(4-fluorophenyl)-1H-pyrazole-4-carboxamide]	> 1000 nM	> 85%	> 85%	< 1000 nM
